The values that follow come from US20230134760A1, “CAR AND NRF2 DUAL ACTIVATOR AGENTS FOR CYCLOPHOSPHAMIDE-BASED AND DOXORUBICIN-BASED TREATMENTS OF CANCER” (priority 2020, published 2023).

For one assay, the system named is Nrf2. Put plainly: Nrf2 expression and nuclear translocation in H9c2 cardiomyocytes (Western blot). Type of assay: cell-based, rat. The text has this:
Protein was harvested using cell lysis buffer (Cell Signaling Technology, Danvers, Mass.) with a complete protease inhibitor cocktail (Roche, Mannheim, Germany) prior to homogenizing via sonification. Homogenized protein from treated HPH, H9c2, BT549, and MDA-MB-231 cells were resolved on NuPage Novex Bis-Tris 4-12% gels (Life Technologies) or NuPage Novex Bis-Tris 12% gel and transferred through electrophoresis onto immobilon-P polyvinylidene difluoride (PVDF) membranes. Membranes were blocked with 5% BSA or 5% milk in Tris-Buffer saline with Tween 20 (TBST). Further, membranes were incubated with specific antibodies against human CYP2B6 (1:1000, Abcam), CYP3A4 (1:1000, Millipore Sigma), HO-1 (1:1000, Abcam), cleaved caspase-3 (1:1000 Cell Signaling Technologies), Nrf2 (1:1000, Abcam), TATA-Binding Protein (1:500, Santa Cruz) β-actin (1:3000, Millipore Sigma) at 4° C. overnight. Following overnight incubation, horseradish peroxidase goat anti-mouse or anti-rabbit IgG antibodies were used for secondary incubation. Membranes were developed using SuperSignal West Pico Chemiluminescent Substrate (Thermo Scientific) or Radiance Q (Azure). Two TNBC cell lines, cardiomyocytes, and HPH protein samples were isolated and resolved on a 4-12% or 12% SDS PAGE gel followed by electrophoretic transfer to a PVDF membrane. […]
(In general: In western blotting, separated proteins are transferred to a membrane and probed.)

The subject of another assay is HO-1. As to the kind of experiment: HO-1 expression in BT549 cells. The settings on record: BT549, 10 μM, 24 hours. The format is cell-based. The method, then: Immortalized triple negative breast cancer cell lines MDA-MB-231 and BT549 were obtained from ATCC (Rockville, Md.). Additionally, the h9c2 cell line was purchased from ATCC (Rockville, Md.). […] Human iPSC-derived cardiomyocytes were maintained in Mtesr plus and supplemented according to protocol. These cells were treated for 2 hrs or an overnight as indicated. Following a 2 hr pretreatment, cells were co-treated with DOX at indicated concentrations for 6 or 22 hours. Following the overnight treatments, RNA or protein was isolated. HPH were seeded in collagen-coated 24 well plates and pretreated for 24 hrs. BT549 were seeded on inverted coverslips. After a 24 hr pretreatment, hepatocytes were co-administered as indicated and coverslips were inserted. The cell lines were used for less than 60 passages. After 24 h treatment, HPH, BT549, MDA-MB-231, and H9c2 cells were washed and a phenol-chloroform extraction was used to isolate total RNA with the TRIzol reagent (ThermoFisher, Rockford, Ill.). Reverse transcription was performed on extracted RNA (1 μg) to produce cDNA using the High Capacity cDNA Archive kit according to manufacturer's instructions (Applied Biosystems, Foster, Calif.). […] Quantification of expression changes was done by the 2^ΔΔCt method, normalizing to GAPDH as the housekeeping gene and determining the fold change compared to control values (n=3). […]

For the next assay, the system named is BT549 cells. As to the kind of experiment: Oxidative stress imaging (DFDA) in BT549 cells. Type of assay: cell-based. The conditions noted are these: BT549, DL7076 5 μM + DOX.
The subject of the next assay is H9c2 cells. As to the kind of experiment: Phosphorylated H2AX imaging, H9c2 cells from multi-organ co-culture. The conditions noted are these: CPA/DOX + DL7076. Type of assay: cell-based, rat. How it is done:
Additionally, HPH were cultured in collagen-coated 6-well plates and pre-treated as described in the previous co-culture system. BT549 and H9c2 cells were plated on similar modified coverslips 0.8×10^5 cells and allowed to attach for 24 hours during hepatocyte pre-treatment. […] Following pre-treatment, BT549 coverslips were inserted adjacent to H9c2 coverslips over the sandwich cultured HPH as depicted in FIG. 43a. […] Both BT549 and H9c2 cells were harvested at indicated time points and assess for viability, apoptosis, and DNA damage as detailed further. […] Cells were fixed using 4% paraformaldehyde in PBS for 15 minutes followed by permeabilization with 0.5% Triton-X 100 in PBS for an additional 15 minutes at room temperature. Prior to blocking with 5% Bovine Serum Albumin (BSA), 3 washes with PBS were done to remove excess Triton-X. Primary antibody to mouse anti-phospho-H2AX ([…], clone JBW301, Millipore, 1:500 dilution) was prepared in PBS with 3% BSA and 0.3% Triton-X 100 and incubated overnight. […] The coverslips were visualized at 10× magnification using fluorescence microscopy (Nikon Eclipse Ti) and the amount of phosphorylation was quantified as mean intensity using brightspot detection of quadruplet images of the whole well and normalized to the vehicle control (0.1% DMSO).

For the next assay, the system named is hCAR. Put plainly: Ad/EYFP-hCAR translocation assay in HPH. The format is cell-based, human. The conditions noted are these: Ad-EYFP-hCAR-infected HPH; DL7076 10 μM, PB 1 mM. How it is done:
HPH were seeded on collagen-coated 12-well plates. 24 hours after seeding, HPH were infected with Ad/EYFP-hCAR at a concentration of 5 μL/mL of media and incubated overnight. HPH infected cells were treated with a vehicle control (DMSO 0.01%), a positive control (1 mM PB), and compounds of interest for 8 h. Fluorescence was viewed using the YFP channel (Nikon Eclipse Ti) and quantified by identifying the number of total cells expressing EYFP-hCAR over EYFP-hCAR present in the nucleus. Representative images are shown, and quantitative data represents the mean±SD of 3 individual images for each treatment group.

As for `O=C(NCCN=C=S)c1c(-c2ccc3ccccc3c2)nc2sccn12` [DL7076, N-(2-Isothiocyanatoethyl)-6-(naphthalen-2-yl)imidazo[2,1-b]thiazole-5-carboxamide], the Nrf2 nuclear accumulation result in the assay with Nrf2 (nuclear extracts of H9c2, 1, 5, 10 μM) is listed as “accumulating in a concentration dependent manner within the nucleus”. Besides, the Nrf2 expression result in the assay with Nrf2 (whole H9c2 cell lysates, 1, 5, 10 μM) is on record as “increased Nrf2 expression in a concentration dependent manner”. This molecule returned an HO-1 induction with HO-1 of 1.5 fold. In addition, the ROS with cotreatment result with BT549 cells is listed as “significant ROS without reduction”. In the assay on H9c2 cells, the “H2AX phosphorylation (DNA damage)” value is “a measured decrease in histone H2A phosphorylation”. Moreover, the EYFP-hCAR nuclear translocation entry with hCAR is on record as “triggered hCAR nuclear translocation”.
